# From a flash point compilation (Sun et al. 2020)
# Structures can show the parent of a compound that is named as a salt.
row,flash point,SMILES
1,-10.00 °C,CC(C)CCl [1-chloro-2-methylpropane]
2,41.00 °C,CCOCCO [2-ethoxyethanol]
3,70.00 °C,CC(C)CC(=O)O [3-methylbutanoic acid]
4,38.00 °C,C1COCCN1 [morpholine]
5,12.00 °C,CCCCC=O [pentanal]
6,22.00 °C,CC(=O)OC(C)(C)C [tert-butyl acetate]

row,SMILES,flash point
1,CCCCBr [1-bromobutane],18.00 °C
2,CCCBr [1-bromopropane],26.00 °C
3,CCCCl [1-chloropropane],-18.00 °C
4,CCBr [bromoethane],-23.00 °C
5,COC(=O)OC [dimethyl carbonate],-1.00 °C

# Remark: another data set of the same source
row,flash point,SMILES
1,-11 °C,"C1=CCC=CC1 [1,4-cyclohexadiene]"
2,35 °C,"C1=CCCC=CCC1 [1,5-cyclooctadiene]"

# Remark: another data set of the same source
row,flash point,SMILES
1,-6 °C,"C1=CCC=CC1 [1,4-cyclohexadiene]"
2,32 °C,"C1=CCCC=CCC1 [1,5-cyclooctadiene]"
3,21 °C,CC(C)CCl [1-chloro-2-methylpropane]
4,44 °C,CCOCCO [2-ethoxyethanol]
5,74 °C,CC(C)CC(=O)O [3-methylbutanoic acid]
6,1 °C,CCCCNC [N-methylbutylamine]
7,33 °C,CC(=O)SC(C)(C)C [S-t-butyl thioacetate]
8,16 °C,"CC(=O)OC(C)(C)C [acetic acid, 1,1-dimethylethyl ester]"
9,90 °C,CC=Cc1ccc(OC)cc1 [anethole]
10,73 °C,CSCc1ccccc1 [benzyl methyl sulfide]
11,129 °C,c1ccc(CCc2ccccc2)cc1 [bibenzyl]
12,32 °C,CCCCOC(=O)CC [butyl propionate]
13,106 °C,Cc1ccc(C(C)C)cc1O [carvacrol]
14,75 °C,CC(C)=CCCC(C)CC=O (configuration not stated) [citronellal]
15,10 °C,O=C1CCC1 [cyclobutanone]
16,65 °C,N#CC1CCCCC1 [cyclohexanecarbonitrile]
17,43 °C,SC1CCCCC1 [cyclohexanethiol]
18,24 °C,C1CCC2OC2C1 (configuration not stated) [cyclohexene oxide]
19,25 °C,SC1CCCC1 [cyclopentanethiol]
20,-25 °C,NC1CC1 [cyclopropylamine]
21,67 °C,CC(C)(C)SSC(C)(C)C [di-tert-butyl disulfide]
22,113 °C,CCCCSSCCCC [dibutyl disulfide]

row,flash point,SMILES
1,167 °C,CCCCOC(=O)CCCCCCCCC(=O)OCCCC [dibutyl sebacate]
2,60 °C,CCCCSCCCC [dibutyl sulfide]
3,96 °C,CCOC(=O)CCCC(=O)OCC [diethyl glutarate]
4,69 °C,CCN(C#N)CC [diethylcyanamide]
5,51 °C,COCCOCCOC [diethylene glycol dimethyl ether]
6,7 °C,CCCNCCC [dipropylamine]
7,22 °C,C=CC1CCCCC1 [ethenylcyclohexane]
8,88 °C,CCOC(=O)c1ccccc1 [ethyl benzoate]
9,15 °C,CCC1CCCC1 [ethyl cyclopentane]
10,150 °C,O=C1OCCO1 [ethylene carbonate]
11,5 °C,FC1CCCCC1 [fluorocyclohexane]
12,112 °C,CCCCCCC(=O)O [heptanoic acid]
13,165 °C,Oc1ccc(O)cc1 [hydroquinone]
14,74 °C,Ic1ccccc1 [iodobenzene]
15,-76 °C,C=C(C)C [isobutene]
16,40 °C,CC(C)COC(=O)C(C)C [isobutyl isobutyrate]
17,88 °C,CCCCCC#CC(=O)OC [methyl 2-octynoate]
18,11 °C,CCCC(=O)OC [methyl butyrate]
19,17 °C,COC(=O)C1CC1 [methyl cyclopropanecarboxylate]
20,52 °C,CCCCCCC(=O)OC [methyl heptanoate]
21,6 °C,CCC(=O)OC [methyl propionate]
22,26 °C,CC1=CC=CC1 [methylcyclopentadiene]

row,flash point,SMILES
1,35 °C,C1COCCN1 [morpholine]
2,71 °C,CCCCCCCCC=O [n-nonanal]
3,25 °C,CCCCCOC(C)=O [n-pentyl acetate]
4,49 °C,CCc1ccccc1CC [o-diethyl benzene]
5,8 °C,CCCCC=O [pentanal]
6,51 °C,CCC(=O)O [propionic acid]
7,33 °C,c1cc[nH]c1 [pyrrole]
8,105 °C,c1ccc2ncccc2c1 [quinoline]
9,39 °C,CCC(C)SC(C)CC (configuration not stated) [s-butyl sulfide]
10,45 °C,CCC(C)c1ccccc1 (configuration not stated) [sec-butylbenzene]
11,-9 °C,CC(C)(C)OC=O [t-butyl formate]
12,-3 °C,CSC(C)(C)C [t-butyl methyl sulfide]
13,20 °C,CCC(=O)OC(C)(C)C [t-butyl propionate]
14,15 °C,CC(=O)OC(C)(C)C [tert-butyl acetate]
15,-28 °C,COC(C)(C)C [tert-butyl methyl ether]
16,-9 °C,CC(C)(C)N [tert-butylamine]
17,12 °C,C1CCSC1 [thiacyclopentane]
18,203 °C,c1ccc(CN(Cc2ccccc2)Cc2ccccc2)cc1 [tribenzylamine]
19,-17 °C,CCN(CC)CC [triethylamine]
20,144 °C,CCCCCCCCCCCc1ccccc1 [undecylbenzene]

row,SMILES,flash point
1,CCCCBr [1-bromobutane],13 °C
2,CCCBr [1-bromopropane],21 °C
3,CCCCl [1-chloropropane],-31 °C
4,Sc1ccccc1 [benzenethiol],50 °C
5,N#Cc1ccccc1 [benzonitrile],75 °C
6,CCBr [bromoethane],-20 °C
7,BrC(Br)Br [bromoform],83 °C
8,C=CC(=O)OCCCC [butyl acrylate],39 °C
9,N#CC1CC1 [cyclopropanecarbonitrile],32 °C
10,CC(C)(C)OOC(C)(C)C [di-tert-butyl peroxide],12 °C
11,CCCCOC(=O)c1ccccc1C(=O)OCCCC [dibutyl phthalate],117 °C
12,CCOC(=O)c1ccccc1C(=O)OCC [diethyl phthalate],160 °C
13,CCOS(=O)OCC [diethyl sulfite],53 °C
14,CC(C)NC(C)C [diisopropylamine],-6 °C
15,COC(=O)OC [dimethyl carbonate],18 °C
16,CNC [dimethylamine],-18 °C
17,CCOC(=O)CCl [ethyl chloroacetate],53 °C
18,OCC(O)CO [glycerol],184 °C
19,C=C(C)C=O [isobutenal],-0 °C
20,COC(=O)C(C)C [methyl isobutyrate],3 °C
21,C=C(C)C(C)=O [methyl isopropenyl ketone],13 °C
22,CCCOC(C)=O [n-propyl acetate],10 °C
23,Cc1ccc(O)cc1 [p-cresol],86 °C
24,O=C=Nc1ccccc1 [phenyl isocyanate],51 °C
25,CC(C)(C)ON=O [t-butyl nitrite],-23 °C
